# “Also recorded” adds a separate entry of the source.
# How the values were obtained:
# [1] = DPPH radical scavenging activity (TAC assay); type: biochemical; settings: ethanol, absorbance 515 nm
# Source text: In an embodiment, the AntiOxCINs antioxidant ranking activity hierarchy was established by in vitro non-cell methods. The selected total antioxidant capacity (TAC) assays (DPPH, ABTS and GO) involved the spectrophotometric measurement of the radical absorbance decrease as a result of an in situ radical deactivation by an antioxidant. Compounds with higher antioxidant activity display lower IC50 values. […] This decrease was attenuated/ameliorated by the increment of the spacer length and/or the introduction of additional hydroxyl group in the aromatic ring.
# The radical scavenging activity of AntiOxCINs was evaluated by means of total antioxidant capacity assays based on DPPH., ABTS.^+ and GO. radicals. All these methods involved the spectrophotometric measurement of the absorbance decrease resulting from radical (DPPH., ABTS.^+ or GO.) deactivation with an antioxidant. The results were expressed in IC50, which is defined as the minimum antioxidant concentration necessary to reduce the amount of radical by 50%. Antioxidant assays were performed in a multiplate reader (Powerwave XS Microplate Reader) of Bio-Tech instruments.
# In an embodiment, the DPPH. radical scavenging activity was performed as follows: solutions of the test compounds with increasing concentrations (range between 0 μM and 500 μM) were prepared in ethanol. A DPPH′ ethanolic solution (6.85 mM) was also prepared and then diluted to reach the absorbance of 0.72±0.02 at 515 nm. Each compound solution (20 μL) was added to 180 μL of DPPH′ solution in triplicate, and the absorbance at 515 nm was recorded minutely over 45 minutes. […] Dose-response curves were established for the determination of IC50 values. Data are means±SEM of three independent experiments.
# [2] = Iron (II) chelating properties, ferrozine assay; type: biochemical; settings: 100 μM, EDTA=100%
# Procedure: In an embodiment, AntiOxCINs iron (II) chelating properties were evaluated by the ferrozine assay using ethylenediaminetetracetic acid (EDTA) as reference.
# In an embodiment, AntiOxCINs iron chelating properties were evaluated by the spectrophotometric ferrozine method performed in a multiplate reader (Powerwave XS Microplate Reader) of Bio-Tech instruments.
# In an embodiment, the AntiOxCINs iron chelating properties were evaluated as follows: in each well, a solution of the test compound (100 μM) and ammonium iron (II) sulphate in ammonium acetate (20 μM) were added, incubated for 10 min and the absorbance was read at 562 nm. Then, a freshly prepared solution of ferrozine (5 mM) was added to each well (96 μM final concentration). After a new incubation at 37° C. for 10 min period, the absorbance of [Fe(ferrozine)3]^2+ complex was measured at 562 nm. Blank wells were run using DMSO instead of the test compounds. EDTA was used as a reference. All compounds were tested at a final concentration of 100 μM. The absorbance of the first reading was subtracted to the final values to abolish any absorbance due to the test compounds. Data are means±SEM of three independent experiments and are expressed as % of Fe(II) chelation (EDTA=100%).
# [3] = test system: rat liver mitochondria (RLM); assay: AntiOxCINs uptake by energised rat liver mitochondria (TPP-selective electrode); type: in vitro ADME; settings: FIG. 3
# Procedure: In an embodiment, and as an example, mitochondrial AntiOxCINs uptake was assessed in isolated rat liver mitochondria (RLM) in response to the membrane potential. AntiOxCINs can accumulate inside mitochondria driven by the ΔΨ (FIG. 3A). Different AntiOxCINs accumulation outlines within the mitochondrial matrix have been noticed. […] However, the linear increase of AntiOxCINs lipophilicity was not directly translated into an increase in the ratio of mitochondrial matrix accumulation (FIG. 3B). The following ranking order was attained: AntiOxCIN1<AntiOxCIN2<[…]<AntiOxCIN3 (catechol series); AntiOxCIN4<AntiOxCIN7<AntiOxCIN6 (pyrogallol series) (FIG. 3C).
# (§1) In an embodiment, the evaluation of AntiOxCINs functional mitochondrial toxicity profile was performed in rat liver mitochondria (RLM). RLM were prepared by tissue homogenization followed by differential centrifugations in ice-cold buffer containing 250 mM sucrose, 10 mM HEPES (pH 7.4), 1 mM EGTA, and 0.1% fat-free bovine serum albumin. After obtaining a crude mitochondrial preparation, pellets were washed twice and resuspended in washing buffer (250 mM sucrose and 10 mM HEPES, pH 7.4). The protein concentration was determined by the biuret assay using BSA as a standard.
# In an embodiment, the AntiOxCINs mitochondria uptake by energized RLM was evaluated as follows: RLM (0.5 mg protein/mL) were incubated with AntiOxCINs at 37° C. under constant stirring in 1 mL of KCl medium (120 mM KCl, 10 mM HEPES, pH 7.2 and 1 mM EGTA). Five sequential 1 μM additions of each AntiOxCINs were performed to calibrate the electrode response in the presence of rotenone (1.5 μM). Then, succinate (10 mM) was added to generate AN. Valinomicin (0.2 μg/mL) was added at the end of the assay to dissipate AN. […] The mitochondrial accumulation ratio was calculated by the disappearance of AntiOxCINs from extra- to intramitochondrial medium assuming an intramitochondrial volume of 0.5 μL/mg protein and a binding correction for the mitochondrial uptake of TPP compounds.
# [4] = test system: mitochondrial permeability transition pore (mPTP) of RLM; assay: Mitochondrial permeability transition pore (mPTP) opening, mitochondrial swelling; type: biochemical, rat; settings: 2.5, 5 and 10 μM, pre-incubated 5 min before calcium, FIG. 7A-C
# Procedure: In an embodiment, the AntiOxCINs effects on mitochondrial permeability transition pore (mPTP) opening were evaluated. In general, less lipophilic AntiOxCINs had no effect on mPTP opening for all tested concentrations (FIG. 7A-C).
# as §1
# In an embodiment, the effect of AntiOxCINs on mitochondrial permeability transition pore opening were measured as follows: mitochondrial swelling was estimated by measuring the alterations of light scattered from a mitochondrial suspension, as monitored spectrophotometrically at 540 nm. Increasing concentrations of AntiOxCINs (2.5-10 μM) were added to the reaction medium (200 mM sucrose, 1 mM KH2PO4, 10 mM Tris (pH 7.4), 5 mM succinate and 10 μM EGTA supplemented with 1.5 μM rotenone), in the presence of RLM (1 mg), and allowed to incubate for a 5 min period before the assay. The experiments were initiated by the addition of a suitable concentration of Ca^2+ (15-50 μM), titrated every day. […] The reaction was stirred continuously and the temperature maintained at 37° C. Data are means±SEM of three independent experiments and are expressed as Aabsorbance at 540 nm.
Structure (SMILES),IC50 [1],iron (II) chelation ([2]; FIG. 2),mitochondrial accumulation ratio [3],"iron (II) chelation ([2]; FIG. 2, methanesulfonate)",effect on calcium-dependent mPTP opening [4]
"O=C(O)/C=C/c1ccc(O)c(O)c1 [Caffeic acid, caffeic acid, reference compound]",18.1 µM,able to chelate ferrous iron alike EDTA,–,–,–
"CS(=O)(=O)[O-].O=C(/C=C/c1ccc(O)c(O)c1)NCCCCCC[P+](c1ccccc1)(c1ccccc1)c1ccccc1 [AntiOxCIN2, (E)-(6-(3-(3,4-dihydroxyphenyl)prop-2-enamido)hexyl)triphenylphosphonium methanesulfonate]",29.5 µM,higher iron chelation activity than caffeic acid itself,approximately the same accumulation ratio,–,–
"CS(=O)(=O)[O-].O=C(/C=C/c1cc(O)c(O)c(O)c1)NCCCCCC[P+](c1ccccc1)(c1ccccc1)c1ccccc1 [AntiOxCIN4, (E)-(6-(3-(3,4,5-trihydroxyphenyl)prop-2-enamido)hexyl)triphenylphosphonium methanesulfonate]",19 µM,–,approximately the same accumulation ratio,higher iron chelation activity than caffeic acid itself; also recorded: remarkable iron-chelation property,–
"CS(=O)(=O)[O-].O=C(/C=C/c1cc(O)c(O)c(O)c1)NCCCCCCCCCC[P+](c1ccccc1)(c1ccccc1)c1ccccc1 [AntiOxCIN7, (E)-(10-(3-(3,4,5-trihydroxyphenyl)acrylamido)decyl)triphenylphosphonium methanesulfonate]",13.7 µM,–,lower accumulation ratio,–,inhibition of calcium-dependent mPTP opening
"CS(=O)(=O)[O-].O=C(/C=C/c1ccc(O)c(O)c1)NCCCCCCCCCC[P+](c1ccccc1)(c1ccccc1)c1ccccc1 [AntiOxCIN6, (E)-(10-(3-(3,4-dihydroxyphenyl)acrylamido)decyl)triphenylphosphonium methanesulfonate]",25.9 µM,–,–,–,inhibition of calcium-dependent mPTP opening
"CS(=O)(=O)[O-].O=C(/C=C/c1ccc(O)c(O)c1)NCCCCCCCC[P+](c1ccccc1)(c1ccccc1)c1ccccc1 [AntiOxCIN3, (E)-(8-(3-(3,4-dihydroxyphenyl)acrylamido)octyl)triphenylphosphoniummethanesulfonate]",28 µM,–,–,–,inhibition of calcium-dependent mPTP opening
"CS(=O)(=O)[O-].O=C(/C=C/c1cc(O)c(O)c(O)c1)NCCCCCCCC[P+](c1ccccc1)(c1ccccc1)c1ccccc1 [AntiOxCIN5, (E)-(8-(3-(3,4,5-trihydroxyphenyl)acrylamido)octyl)triphenylphosphonium methanesulfonate]",14.7 µM,–,–,–,inhibition of calcium-dependent mPTP opening
